The source of these data is patent US8927024B1, “Antimicrobial polyanhydride nanoparticles” (priority 2009, dated 2015).

Several values for one entry are separate records, joined by “and”; a condition that tells them apart may be missing. Equal entries are not always repeated. Where two headings read alike, the source gives them in different places.

The subject of test [1] is Mycobacterium avium subsp. paratuberculosis (MAP). Put plainly: Viability of MAP in broth culture (% live MAP by flow). Particulars: for viability at 1.25 µg/mL / viability at 10 µg/mL: Mycobacterium avium, read-out: % live MAP (viability of MAP in broth).
The test system of the next test is Brucella melitensis 16M. As to conditions: in vivo; cited from earlier work.

On to `NCC[C@H](O)C(=O)N[C@@H]1C[C@H](N)[C@@H](O[C@H]2O[C@H](CN)[C@@H](O)[C@H](O)[C@H]2O)[C@H](O)[C@H]1O[C@H]1O[C@H](CO)[C@@H](O)[C@H](N)[C@H]1O` [Soluble, amikacin], for which the “antimicrobial activity in MAP cultures” value in test [1] (FIG. 15, 10 μg/mL amikacin) is on record as “minimal antimicrobial activity”. Further, in test [1] (24 h), the viability (in general, a per cent measure of how many cells are alive, often set against a control) at 1.25 µg/mL was determined as 93.8% and the viability at 10 µg/mL stood at 90.1%. Also, in test [1] (48 h), the viability at 1.25 µg/mL was 88.4% and the viability at 10 µg/mL stood at 84.8%.

For gentamicin [Free GEN], in the test with Brucella melitensis 16M, the “Log CFU/spleen” value was 6.77 ± 0.12 Log CFU/spleen; the “Reduction (log)” value is 0.08 log and 0.04 log; the Spleen wt is 0.86 ± 0.05 g and 0.83 ± 0.26 g.
